Test system: E. floccosum
Assay: Full skin model infected with spores, treatment, histology
Assay type: cell-based, Epidermophyton floccosum
Details: 48 h and 72 h, sertaconazol 0.010, ciclopiroxolamin 400, terbinafin 0.200 µg/mL
Description: For an application in vivo, there is the additional requirement for the antimycotic substances to evoke a targeted antimycotic activity in the presence of human cells. Thus, 3D-cell-cultures such as full skin models are used to simulate the in vivo conditions. Such full skin models are for example described in Reddersen K, Wiegand C, Elsner P, Hipler UC. Three-dimensional human skin model infected with Staphylococcus aureus as a tool for evaluation of bioactivity and biocompatibility of antiseptics. Int J Antimicrob Agents. 2019; 54(3):283-291; Wiegand C, Fink S, Beier O, Horn K, Pfuch A, Schimanski A, Grünler B, Hipler UC, Elsner P. Dose- and Time-Dependent Cellular Effects of Cold Atmospheric Pressure Plasma Evaluated in 3D Skin Models. Skin Pharmacol Physiol. 2016;29(5):257-265. Particularly, such full skin models are made of a collagen matrix, which is colonized with primary human fibroblasts, and a fully differentiated epidermis made of primary human keratinocytes. For the experiments, the model is infected in vitro with spores, such that a determination of the sporistatic or sporicidal influence of the substances to be examined at in vivo relevant conditions is allowed. Compared to a 2D-model, the 3D full skin model has the advantage that the cells are in their natural three-dimensional surrounding and show a corresponding behaviour. Such, the antimycotic and sporistatic or sporicidal effects can be examined in situ and in the presence of human cells.
The spore suspensions and the solutions of sertaconazol, ciclopiroxolamin and terbinafin were prepared as in Example 1, wherein the respective test concentrations were obtained by diluting these solutions in ultrapure water (WFI; Fresenius Kabi) instead of SGB (Merck). Full skin models were produced as previously described [Reddersen K, Wiegand C, Elsner P, Hipler UC. […] 2019; 54(3):283-291; Wiegand C, Fink S, Beier O, Horn K, Pfuch A, Schimanski A, Grünler B, Hipler UC, Elsner P. Dose- and Time-Dependent Cellular Effects of Cold Atmospheric Pressure Plasma Evaluated in 3D Skin Models. […]

| Compound | outgrowth of E. floccosum |
| --- | --- |
| Cc1cc(C2CCCCC2)n(O)c(=O)c1 [Ciclopiroxolamin, ciclopiroxolamin] | only reduced |
| Clc1ccc(C(Cn2ccnc2)OCc2csc3c(Cl)cccc23)c(Cl)c1 (stereo not drawn) [Sertaconazol, sertaconazol] | inhibited |
| CN(C/C=C/C#CC(C)(C)C)Cc1cccc2ccccc12 [Terbinafin, terbinafin] | only reduced |
